Experiment [1] deals with Palmer amaranth, waterhemp, kochia, common ragweed or marestail. The conditions noted are these: weeds and soybean, corn or cotton grown 14 days, spot foliar treatment of 20% of pot area, 560 g/ha dicamba acid equivalence, 150 L/ha, then grown 21 days; compared with plot without crop and plot with uniform blanket treatment at 560 g/ha.
Method: (§1) The evaluation of the herbicidal efficacy is classified into 0 to 100, where the numeral “0” indicates no or little difference in the state of emergence or growth of weeds under test at the time of examination as compared with untreated weeds, and the numeral “100” indicates the complete death of weeds under test or the complete inhibition of emergence or growth of weeds under test.
A pot is filled with soil, and then Palmer amaranth, waterhemp, kochia, common ragweed, or marestail is seeded at a corner portion of the soil, and soybean (Genuity Roundup Ready 2 Xtend), corn (Genuity Roundup Ready 2), or cotton (Genuity Roundup Ready 2 Xtend) is seeded at another corner portion of the soil. […] Thereafter, the weeds and crops are grown in the greenhouse for 21 days. This is defined as the invention plot.
Experiment [2] has the same test system. To be noted: spot foliar treatment of 20% of pot area, 560 g/ha dicamba acid equivalence, 150 L/ha; soybean, corn or cotton seeded immediately after, grown 21 days; compared with plot without crop and plot with uniform blanket treatment at 560 g/ha.
Method: as §1
A pot is filled with a soil, and then Palmer amaranth, waterhemp, kochia, common ragweed or marestail is seeded at a corner portion of the soil. […] Immediately thereafter, soybean (Genuity Roundup Ready 2 Xtend), corn (Genuity Roundup Ready 2), or cotton (Genuity Roundup Ready 2 Xtend) is seeded in a corner portion different from vegetation patches of weeds in the soil, and grown in the greenhouse for 21 days. This is defined as the invention plot.

SMILES strings stand for the structures. Where two headings read alike, the source gives them in different places.

Regarding `CN(CCCN)CCCN.COc1c(Cl)ccc(Cl)c1C(=O)O` [dicamba-biproamine], the weed control effect entry in experiment [1] and in experiment [2] was “excellent weed control effect” each time.

Source of the values: US12336540B2, “Method for controlling weeds” (SUMITOMO CHEMICAL COMPANY, LIMITED, priority 2019, dated 2025).
